Measurements published in US20070078148A1, “Agents for preventing and/or treating higher brain dysfunctions” (Kyowa Hakko Kogyo Co., Ltd., priority 2003, published 2007).
Marks after values point to notes of the source that are not given here.

How the values were obtained:
Type in all cases: in vivo, rat
SD male rats = test: Test for learning of active avoidance (shuttle box, conditioned avoidance behavior); details: 1 hour before the test; for Avoidance rate (%): average in 10 rats, Solvent 90.8
Experimental: Experiment was carried with using 10 SD male rats (body weight: 220-280 g) for one group.
Using a shuttle box apparatus consisting of two boxes (TK-401S; Unicom), the rats were made to learn and train (escape training) conditioned avoidance behavior. In one trial in the escape training, an alarm stimulus by light and buzzer sound as a conditioned stimulus was given to the rats for 8 seconds. […] Repetition of the trial was conducted at interval times of 5 seconds, and the escape training was repeated 50 trials/1 training/1 day for 10 days.
The test compound was used as a suspension in injectable distilled water containing 0.3% Tween-80 (by Otsuka Pharmaceutical Co., Ltd.; 0.3% Tween-80 solution) and orally administered to each of the rats at a dose of 10 mL/kg 1 hour before the test (Test compound-administered group). Separately, 0.3% Tween-80 solution alone was orally administered to each of the rats at a dose of 10 mL/kg 1 hour before the test (Solvent-administered group).
For analysis of the test results, various parameters were inputted in a personal computer (NEC; PC-9821Xe) and the avoidance rate (%) (average in 10 rats; the rats which took avoidance behavior by an alarm stimulus was regarded as successful escape; the avoidance rate when the rat succeeded in escaping all 50 trials was regarded as 100%) and the change of the total reaction latency (the time required for the completion of the whole trial) were compared with those of Solvent-administered group. The analysis was carried out by a Steel-test.

[1] = test system: Wistar female rats with bilateral ligation of the common carotid arteries; test: Maze-learning test in rats prepared by bilateral ligation of the common carotid arteries; details: FIG. 1
Experimental: Experiment was carried out using 10 Wistar female rats (body weight 210-310 g) for one group.
Under anesthesia with pentobarbital, the necks of rats were incised and the bilateral common carotid arteries were ligated (ligated rats). Separately, the necks of rats were incised but the bilateral common carotid arteries were not ligated (sham operation rats). Under anesthesia with pentobarbital, the rat was fixed on a brain-fixing apparatus for rat (Narishige; SR-6). Hydrogen electrodes (Unique Medical; UHE-100, IS needle type) were inserted into a brain coordinate (A2.0, L2.0, D-2.0). Hydrogen indifferent electrode (Unique Medical) was placed on the rat's neck. An artificial respiration was applied to the rat through a respiratory apparatus (Shinano Seisakusyo; SN-480-7), through which about 40 mL of hydrogen gas was forcibly inhaled 2 or 3 times at intervals of about 15 minutes. […]
Running for the maze-learning test was performed twice. […] At that time, the frequency of selection of the lanes required for obtaining the 4 hollows of milk was recorded up to 16th round of selection.
The maze-learning test was started from 4 weeks after the bilateral ligation of the common carotid arteries. […] The lanes on which blocks were placed in the first running were determined according to each rat and were maintained constantly during the test period. […]

Wistar (Han) male rats = test: Test for learning a delayed alternating problem (non-matching to sample, Skinner box); details: 0.3 mg/kg oral once a day
Experimental: The test was carried out in a manner similar to the method as described in Drug Dev. Res., 35, p.83-95 (1996).
Experiment was carried out using 10 Wistar (Han) male rats (body weight 200-250 g) for one group.
A Skinner box (30 cm×25 cm×30 cm) equipped with 3 pull-type lever (at the center, left and right sides) connected to a feeding vessel (supplying 45 mg diet pellet) was used in the experiment. The control of the test condition and the data accumulation were automatically conducted by connecting with a MED.PC program system.
Each rat received learning and training of lever pushing, and thereafter learning and training of a delayed alternating problem. In the learning and training of lever pushing, the rat learned and was trained so that the diet could be obtained by pushing any one of the center, left and right pull-type levers. In the subsequent learning and training of delayed alternating problem, the rat learned and was trained that the diet could be obtained by pushing any one of the left and right levers at first, and then the pushed lever was withdrawn; then, 5 seconds after that, both of the left and right levers were presented, but the diet was supplied only when the opposite side lever of the one pushed previously was pushed.
The test compound was used as a suspension thereof in injectable distilled water containing 0.5% methylcellulose (MC) (Otsuka Pharmaceutical Co.) and was administered orally to each of the rats which learned and trained the lever pushing at a dose of 10 mL/kg volume once a day from the start of learning and training of a delayed alternating problem continuously for a week (Test compound-administered group). Separately, to each of the rats which learned and trained the lever pushing, 0.5% MC solution alone was orally administered at a dose of 10 mL/kg volume once a day from the start of learning and training of a delayed alternating problem continuously for 1 week, and the rats were referred to as Solvent-administered group.
The accuracy rate for the reaction was indicated by the rate (%) of correctly selecting the left or right lever (average of 10 rats), and the test results were analyzed by one-way ANOVA-Student's t test.

albino female rats = test: Test for learning of passive avoidance (scopolamine-induced impairment of memory); details: for Rate of the rats exhibiting passive avoidance behavior (%) / Rate of the rats exhibiting passive avoidance behavior (rats/total): 2 hours after administration
Experimental: Experiment was carried out using 32 albino female rats (body weight: about 100 g) for one group.
Test for learning of passive avoidance was conducted in a test box (40 cm×31 cm×29 cm) in which a stainless steel grid was spread on the floor so that an electric shock of 1.1 mA can be give randomly. In the test box, a plastic plate (15 cm×5 cm) of 0.5 cm thickness was placed at a corner to cover the floor; and the test box comprised a mechanism that when a rat placed on the plate steps down on the floor grid, the rat results in receiving an electric shock. Usually, the rat attacked by an electric shock immediately gets back on the plastic plate but tries to get down on the floor; then, the rat is attacked by an electric shock again. Usually, the rat gradually changes its behavior with repetition of the shock (learning and training), resulting in staying on the plastic plate (passive avoidance behavior).
After the learning and training, the rats keeping the memory were selected and used for the test based on the memory-keeping test as mentioned below.
The test compound was used as a suspension thereof in distilled water containing 0.3% Tween-80; and scopolamine was used as a solution thereof in distilled water (by Sigma).
To each of the rats which learned the passive avoidance behavior, immediately after learning, 1 mg/kg (2 mL/kg volume) of scopolamine (subcutaneous administration) and 2 mL/kg volume of a test compound (oral administration) was administered simultaneously (Test compound-administered group); and 2 hours after administration, the rats were evaluated whether they kept memory of learning of the passive avoidance behavior. Separately, to each of the rats which learned the passive avoidance behavior, immediately after learning, 2 mL/kg volume of 0.3% Tween-80 solution alone was orally administered, and the rats were referred to as Solvent-administered group; while in the same manner, the rats to which 1 mg/kg of scopolamine (2 mL/kg volume) each were administered subcutaneously, were referred to as Scopolamine-administered group.

[2] = 0.3 mg/kg oral with scopolamine 1 mg/kg s.c.
[3] = 3.0 mg/kg oral with scopolamine 1 mg/kg s.c.
[4] = 30 mg/kg oral with scopolamine 1 mg/kg s.c.

## COc1cc(/C=C/c2nc3c(c(=O)n(C)c(=O)n3C)n2C)cc(OC)c1OC [Compound 1]
SD male rats; 0.3 mg/kg oral, Solvent 99.1
  Time required for completion of the whole trial (sec): significantly reduced
SD male rats; 3.0 mg/kg oral, Solvent 99.1
  Time required for completion of the whole trial (sec): significantly reduced
[1]; 1 mg/kg oral one hour before first trial, p<0.025 vs Solvent-administered group
  Decrease of the learning results (lane selection frequency, second running) caused by bilateral ligation of the common carotid arteries: significantly improved
[1]; 3 mg/kg oral one hour before first trial, p<0.005 vs Solvent-administered group
  Decrease of the learning results (lane selection frequency, second running) caused by bilateral ligation of the common carotid arteries: significantly improved

## CCn1c(=O)c2c(nc(/C=C/c3ccc(OC)c(OC)c3)n2C)n(CC)c1=O [Compound 2]
Wistar (Han) male rats; 1st day, Solvent 48.3 ± 2.9
  Accuracy Rate for the reaction everyday (%) (Mean ± Standard deviation): 49.7 ± 2.1 NS %
Wistar (Han) male rats; 3rd day, Solvent 39.4 ± 2.9
  Accuracy Rate for the reaction everyday (%) (Mean ± Standard deviation): 49.4 ± 3.4 %
Wistar (Han) male rats; 5th day, Solvent 47.7 ± 2.1
  Accuracy Rate for the reaction everyday (%) (Mean ± Standard deviation): 60.0 ± 3.0 %
Wistar (Han) male rats; in a week, Solvent 45.4 ± 1.6, 0.3 mg/kg
  Accuracy rate for the reaction in a week (%) (Mean ± Standard deviation): 50.6±1.5%
SD male rats; 0.03 mg/kg oral, Solvent 99.1
  Time required for completion of the whole trial: 81.2 s
SD male rats; 0.03 mg/kg oral
  Avoidance rate (%): 96.2%
SD male rats; 0.3 mg/kg oral, Solvent 99.1
  Time required for completion of the whole trial (sec): 64.9 * sec
SD male rats; 0.3 mg/kg oral
  Avoidance rate (%): 97.2%
SD male rats; 3.0 mg/kg oral, Solvent 99.1
  Time required for completion of the whole trial (sec): 65.3 ** sec
Albino female rats; [2]
  Rate of the rats exhibiting passive avoidance behavior (%): (53.1%)
  Rate of the rats exhibiting passive avoidance behavior (rats/total): 17/32*
Albino female rats; [3]
  Rate of the rats exhibiting passive avoidance behavior (%): (75.0%)
  Rate of the rats exhibiting passive avoidance behavior (rats/total): 24/32*
Albino female rats; [4]
  Rate of the rats exhibiting passive avoidance behavior (%): (84.4%)
  Rate of the rats exhibiting passive avoidance behavior (rats/total): 27/32*
Albino female rats; administered simultaneously with scopolamine, p<0.05 Two-tailed Chi Square test
  Rate of the rats exhibiting the passive avoidance behavior in comparison with Scopolamine-administered group: significantly increased

## CN1[C@@H]2C[C@@H](OC(=O)[C@H](CO)c3ccccc3)C[C@H]1[C@@H]1O[C@@H]12 [Scopolamine, scopolamine, reference compound]
Albino female rats; scopolamine alone 1 mg/kg s.c., Solvent 26/32
  Rate of the rats exhibiting passive avoidance behavior (rats/total): 4/32
